Where no end group is shown, it is not given here.
Target: DR04:01 protein (Homo sapiens, UniProt P01903+P01911, A100K/A169T/F76Y/I96L/K127E/L162R/M171V/N62H/P40V/Q125Y/R42H/S133A/S149N/S66Y/V115G/V209L/W38E)
Assay: Peptide binding assay

ESYKFIPALEAAV [Hor v 5a 199-218] and ESYKFIPALEAAV [Phl p 5a 199-218] are within 1.5-fold of each other in IC50: 990 nM for the first, 970 nM for the second.

First: AAFRTAATAADAA [Hor v 5a 167-186]
Second: AAYRTAATAANAA [Lol p 5a 167-186]
The IC50 of the first is 1.8-fold higher: 970 nM for the first, 532 nM for the second.

First: SEFEDVIPEGWKADTSYSAK [Lol p 1 221-240]
Second: EEPIAPYHFDLSGHAFGAMA [Phl p 1 97-116]
The IC50 of the first is 11-fold higher: 2920 nM for the first, 275 nM for the second.

Going from AAYKIAATAANAA [Dac g 5a 167-186] to AAFRIAATAANAA [Holl 5a 167-186], the IC50 rises from 50 nM to 116 nM (2.3-fold).

First: ESYKFIPTLEAAV [Dac g 5a 199-218]
Second: SEVEDVIPEGWKADTSYEAK [Dac g 1 221-240]
The IC50 of the first is 2.4-fold lower: 74.6 nM for the first, 177 nM for the second. The first is the more potent here.

Compared with DSYKFIPTLVAAV [Lol p 5a 199-218], EAYKFIPSLETAV [Holl 5a 199-218] is 3.9-fold lower in IC50: 410 nM for the first, 105 nM for the second. The second is the more potent here.

Compared with ETYKFIPSLEAAV [Pha a 5a 199-218], `CC[C@H](C)[C@H](NC(=O)[C@@H](NC(=O)[C@H](CC(=O)O)NC(=O)[C@H](CCC(=O)O)NC(=O)[C@H](C)NC(=O)[C@H](CCC(=O)O)NC(=O)[C@@H](N)[C@@H](C)O)C(C)C)C(=O)N1CCC[C@H]1C(=O)N[C@@H](CCC(=O)O)C(=O)NCC(=O)N[C@@H](Cc1c[nH]c2ccccc12)C(=O)N[C@@H](CCCCN)C(=O)N[C@@H](C)C(=O)N[C@@H](CC(=O)O)C(=O)N[C@H](C(=O)N[C@@H](CO)C(=O)N[C@@H](Cc1ccc(O)cc1)C(=O)N[C@@H](CCC(=O)O)C(=O)N[C@@H](CO)C(=O)N[C@@H](CCCCN)C(=O)O)[C@@H](C)O` [Phl p 1 221-240] is 57-fold higher in IC50: 51 nM for the first, 2920 nM for the second. The first is the more potent here.

For EEPIAPYHFDLSGHAFGSMA [Lol p 1 97-116], the IC50 was 435 nM.
